Laboratory results taken from the CheMixHub drug solubility set.

Experiment: xn = mol fraction of the nth substance listed, in the solute-free solvent

COc1cc2c(cc1OC)-c1cc3ccc(OC)c(OC)c3c[n+]1CC2.[Cl-] + O + CC(O)CO
solubility (g/100 g solution)
Conditions | 283.15 K | 288.15 K | 293.15 K | 298.15 K | 303.15 K | 308.15 K | 313.15 K | 318.15 K | 323.15 K | 328.15 K
x2 = 0.3194 | 0.0156 | 0.0224 | 0.0316 | 0.0473 | 0.0678 | 0.0953 | 0.132 | 0.184 | 0.251 | 0.339
x2 = 0.5135 | 0.0475 | 0.0664 | 0.0917 | 0.133 | 0.186 | 0.256 | 0.347 | 0.47 | 0.626 | 0.826
x2 = 0.6441 | 0.104 | 0.142 | 0.193 | 0.274 | 0.376 | 0.505 | 0.672 | 0.891 | 1.17 | 1.51
x2 = 0.7379 | 0.183 | 0.245 | 0.329 | 0.457 | 0.614 | 0.811 | 1.06 | 1.38 | 1.78 | 2.26
x2 = 0.8085 | 0.279 | 0.368 | 0.512 | 0.702 | 0.905 | 1.16 | 1.5 | 1.92 | 2.41 | 3
x2 = 0.8636 | 0.395 | 0.513 | 0.673 | 0.9 | 1.21 | 1.57 | 1.97 | 2.46 | 3.04 | 3.73
x2 = 0.9079 | 0.537 | 0.688 | 0.893 | 1.17 | 1.55 | 1.96 | 2.44 | 3 | 3.69 | 4.46
x2 = 0.9441 | 0.72 | 0.971 | 1.23 | 1.57 | 1.95 | 2.41 | 2.97 | 3.63 | 4.39 | 5.26
x2 = 0.9744 | 0.947 | 1.18 | 1.5 | 1.9 | 2.41 | 2.97 | 3.61 | 4.32 | 5.17 | 6.09

CC(N)C(=O)O (stereo not given) + O + CCCO
solubility (g/100 g solution)
Conditions | x2 = 0.1 | x2 = 0.2 | x2 = 0.3 | x2 = 0.4 | x2 = 0.5 | x2 = 0.6 | x2 = 0.7 | x2 = 0.8 | x2 = 0.9
283.15 K | 0.0276 | 0.0472 | 0.0784 | 0.143 | 0.358 | 0.635 | 1.29 | 2.39 | 4.58
293.15 K | 0.0384 | 0.0536 | 0.0822 | 0.164 | 0.384 | 0.742 | 1.56 | 3.01 | 5.63
303.15 K | 0.0461 | 0.0689 | 0.0947 | 0.202 | 0.439 | 0.892 | 1.89 | 3.69 | 6.82
313.15 K | 0.0649 | 0.0791 | 0.109 | 0.224 | 0.504 | 1.12 | 2.27 | 4.41 | 8.24
323.15 K | 0.0824 | 0.114 | 0.147 | 0.268 | 0.594 | 1.29 | 2.65 | 5.2 | 9.44

CC(N)C(=O)O (stereo not given) + O + CCO
solubility (g/100 g solution)
Conditions | x2 = 0.1 | x2 = 0.2 | x2 = 0.3 | x2 = 0.4 | x2 = 0.5 | x2 = 0.6 | x2 = 0.7 | x2 = 0.8 | x2 = 0.9
283.15 K | 0.0667 | 0.0909 | 0.102 | 0.126 | 0.31 | 0.534 | 1.1 | 1.98 | 4.36
293.15 K | 0.0741 | 0.0951 | 0.11 | 0.185 | 0.389 | 0.66 | 1.35 | 2.59 | 5.5
303.15 K | 0.0895 | 0.102 | 0.127 | 0.245 | 0.454 | 0.83 | 1.68 | 3.23 | 6.66
313.15 K | 0.0998 | 0.114 | 0.136 | 0.268 | 0.573 | 1.05 | 2.12 | 3.96 | 7.99
323.15 K | 0.104 | 0.124 | 0.196 | 0.347 | 0.688 | 1.37 | 2.62 | 4.97 | 9.53
